# Assays:
# [1] = tested on: patients with Huntington's disease; test: Trial in patients with Huntington's disease; type: in vivo, human; settings: add on, 2.5 to 20 mg b.i.d., versus placebo
# Experimental: A typical trial to establish the effect of the compounds according to the invention on chorea, voluntary motor performance, and functional disability in patients with Huntington's disease encompasses 32 genetically diagnosed patients. […] The dose of blinded medication is titrated over a period of 3 weeks in a range from 2.5 to 20 mg b.i.d. Then the medication is held constant for 1 week. Assessments are performed in the week before and at the last day of the trial. Chorea is scored using the abnormal involuntary movement scale (AIMS, W. Guy, in: ECDEU assessment manual. Rockville Md.: US dept. of health, education and welfare, 1976: 534-537), the unified Huntington's disease rating scale (UHDRS, Huntington study group, 1996, Movement Disord, 11: 136-42), and judgement of video recordings. Voluntary motor performance is assessed using the UHDRS motor scale. Patients and their partners complete a questionnaire regarding functional disability.
# [2] = tested on: patients with advanced idiopathic Parkinson's disease complicated by "peak-dose" dyskinesia; test: Double-blind cross-over study, advanced idiopathic Parkinson's disease with peak-dose dyskinesia; type: in vivo, human; settings: add on, 2.5 to 10 mg b.i.d., versus placebo; first hour in the on state
# From the text: A typical study to investigate the efficacy of the compounds according to the invention for adverse effects in Parkinson's disease is described in the following. 40 patients of either sex with advanced idiopathic Parkinson's disease complicated by “peak-dose” dyskinesia participate in a double-blind, cross-over study. The main inclusion criteria are Hoehn & Yahr stage ≧2.5 (lit.: Hoehn H. M. et al, Neurology 1967; 17: 427-442), aged 40-75 years, symptom duration of at least 5 years, and a I-dopa treatment duration of at least 3 years. […] The dose of blinded medication is titrated over a period of 3 weeks in a range from 2.5 to 10 mg b.i.d. Then the medication is kept constant for 1 week. Before the start of titration and at the end of the treatment period a I-dopa challenge is performed according to […] et al. (Movement Disord, 1999, 14 (Suppl. 1), 54-59) using video recording. The main outcome measure of the protocol is the mean score for dyskinesia during the first hour in the “on” state after I-dopa challenge. Therefore, the investigator assesses every minute the severity of dyskinesia (0=absent, 4=severe disabling involuntary movements) from 0 to 4 in seven parts of the body (upper and lower limbs, face, trunk, neck). After a 2-week wash-out period the two study arms are crossed over and the protocol is repeated.
# [3] = tested on: schizophrenic inpatients on long-term stable antipsychotic treatment; test: Tardive dyskinesia study in schizophrenic inpatients (AIMS); type: in vivo, human; settings: add on to antipsychotic treatment, 2.5 to 20 mg b.i.d., versus placebo period
# Experimental: dyskinesia is a common adverse effect of long-term treatment with neuroleptics. A typical study to investigate the efficacy of the compounds according to the invention in tardive dyskinesia is described in the following. 32 schizophrenic (DSM-III-R) inpatients aged 25-60 years on long-term stable antipsychotic treatment (duration of at least 5 years) entered the study. […] The dose of blinded medication is titrated over a period of 3 weeks in a range from 2.5 to 20 mg b.i.d. Then the medication is maintained under double-blind conditions for 2 weeks. After a 2-week wash-out period, the test drugs are crossed over. Assessments of tardive dyskinesia by means of the Abnormal Involuntary Movement Scale (AIMS, see above) and of Parkinsonian extrapyramidal side effects (UPDRS, see above) are made pretreatment and posttreatment.
# [4] = tested on: patients with cervical dystonia (spasmodic torticollis); test: Double-blind placebo-controlled study in cervical dystonia (TWSTRS); type: in vivo, human; settings: 2.5 mg to 20 mg b.i.d.
# [5] = tested on: patients with idiopathic Parkinson's disease; test: Double-blind study in idiopathic Parkinson's disease (UPDRS); type: in vivo, human; settings: add on, 2.5 to 10 mg b.i.d., versus placebo
# From the text: A typical study to investigate the efficacy of the compounds according to the invention in the treatment of idiopathic Parkinson's disease is described in the following. 180 patients of either sex with idiopathic Parkinson's disease participate in a double-blind study. The main inclusion criteria are Hoehn & Yahr stage ≧2.0 (Hoehn H. M. et al, Neurology 1967; 17: 427-442), aged 50-80 years, symptom duration of at least 5 years. […] The dose of blinded medication is titrated over a period of 4 weeks in a range from 2.5 to 10 mg b.i.d. Then the medication is kept constant for 1 week. Before the start of titration, at the end of the treatment period and 2 weeks after the end of the tiration period an assessment is performed in each patients using the unified Parkinson's disease rating scale (UPDRS part I to V according to S. Fahn et al., in: Recent developments in Parkinson's disease, vol. 2, MacMillan health information 1987, 153-163). […] Furthermore, the efficacy to treat tremor is shown by the means of the UPDRS.
# MSA patients = test: Study in MSA patients (UPDRS); type: in vivo, human; settings: add on, 2.5 to 20 mg b.i.d., versus placebo, cross-over
# Experimental: A typical study to investigate the efficacy of the compounds according to the invention in MSA patients encompasses 30 patients of either sex with a symptom duration of at least 5 years and a significant reduction of central dopamine receptors in positron emission tomography (PET) scan. The study design is similar to that described above for Parkinson's disease. […] Before the start of titration and at the end of the treatment period a complete UPDRS assessment is performed in each patient (primary outcome measure). After a 2-week wash-out period the two study arms are crossed over and the protocol is repeated.
# Parkinson patients = settings: literature reports; cited from earlier work
SMILES,"involuntary motor performance (chorea) ([1]; AIMS, UHDRS, video recordings)",voluntary motor performance ([1]; UHDRS motor scale),mean dyskinesia scores after I-dopa challenge [2],AIMS scores [3],TWSTRS scores [4],UPDRS scores [5],UPDRS (MSA patients),anti-dyskinetic effect in Parkinson patients (Parkinson patients)
Cl.Fc1ccc(-c2cncc(CNC[C@H]3CCc4ccccc4O3)c2)cc1 [(R)-(−)-2-[5-(4-fluorophenyl)-3-pyridylmethylaminomethyl]-chromane hydrochloride],significant improvement,significant improvement,significant clinical improvement,significantly lower than during placebo period,significant improvement,significant clinical improvement,significant clinical improvement,–
O=C1CC2(CCCC2)CC(=O)N1CCCCN1CCN(c2ncccn2)CC1 [buspirone],–,–,–,–,–,–,–,moderate anti-dyskinetic properties

# — US7928128B2, “Use of(R)-(−) -2-[5-(4-fluorophenyl)-3-pyridylmethylaminomethyl]-chromane and its physiologically acceptable salts” (Merck Patent Gesellschaft mit beschrankter Haftung, priority 2000, dated 2011)
